These results are taken from patent US12103919B2, “3-(5-oxy)-1-oxoisoindolin-2-yl)piperidine-2,6-dione derivatives and uses thereof” (NOVARTIS AG, priority 2021, dated 2024).

Read-outs that look alike come from different tables or passages of the source. Where only a bound is given, the exact number is not on record here.

This test concerns the target T1, WIZ (Homo sapiens, UniProt O95785+Q96SW2).
T1 construct: expressed in transfected cells
As to the kind of experiment: Quantification of WIZ protein levels in HiBit tag fusion protein assay (293T cells). Type of test: cell-based. The arrangement: Dmax: dose or concentration left out as unconfirmed. The protocol:
The HiBit system from Promega was used to develop high-throughput and quantitative assays to measure changes in WIZ protein levels in response to compounds. The HiBit tag was derived from a split Nanoluciferase and has the following protein sequence: […] (SEQ ID NO: 1). The complementary fragment of Nanoluciferase (known as LgBit, from Promega), was added to the HiBit tag to form an active Nanoluciferase enzyme whose activity can be precisely measured. In this way, the levels of a fusion protein with the HiBit tag can be quantified in cell lysates.
Lentiviral vectors, based on the Invitrogen™ pLenti6.2/V5 DEST backbone were constructed that places the HiBit tag upstream of WIZ and expressed the fusion protein from an HSVTK promotor.
To ensure moderate and consistent expression of the HiBit-WIZ fusion protein across all cells in the population, stable cell lines were constructed from cells harboring a single copy of the construct. Lentivirus packaged with the constructs were made using the ViraPowerTMkit from Invitrogen™. 293T cells from ATCC (Catalog number: CRL-3216), were infected with the virus at low multiplicity of infection and selected by 5 μg/mL blasticidin in culture media for 2 weeks.
The levels of HiBit-WIZ tagged fusion proteins in compound-treated cell lines were measured as follows:
On day 1, cells were diluted to 1.0×10^6 cells/ml in normal growth medium. 20 μL of cell suspension were plated in each well of a solid white 384-well plate. Plates were incubated overnight in a 37° C. and 5% CO2 humidified tissue culture incubator.
On day 2, serial dilutions of compounds were made in 384-well plates. Compound plates were set up with DMSO in columns 1, 2, 23, 24, and 10-point compound dilution series in column 3-12 and column 13-22. 10 mM stock solution of compound were placed into column 3 or 13 and a 1:5 serial dilution was carried out until there was a 10-point dilution series per compound. 50 nL of diluted compounds were transferred into the plated cells by Echo® (Labcyte) acoustic transfer. The highest concentration of compound was 25 μM. Plates were incubated overnight (about 18 hours) in a 37° C. and 5% CO2 humidified tissue culture incubator.
On day 3, plates were removed from the incubator and allowed to equilibrate at room temperature for 60 minutes. HiBit substrate (Nano-Glo® HiBit Lytic Detection System, Promega Catalogue number: N3050) was added as described by the manufacturers protocols. Plates were incubated at room temperature for 30 minutes and luminescence was read using an EnVision® reader (PerkinElmer®). Data was analyzed and visualized using the Spotfire® software package.
WIZ Amax reflects the DMSO-normalized, curve-fitted percentage of WIZ-HiBit remaining at 25 uM. It was calculated by normalizing DMSO controls to 100%, parametric curve fitting of the dose response data (10-point, 5-fold), followed by calculation of response at 25 uM using the fitted equation.
Background: With HiBiT, luminescence reflects the tagged protein that the partner subunit can reach.

Where [1] appears, read: HEK-293T, read-out: % degradation of WIZ (100 − Amax).
Where [2] appears, read: WIZ HiBit assay in 293T cells, about 18 hours, 10-point 5-fold dilution, top 25 μM; read-out: WIZ AC50.
Where [3] appears, read: HEK-293T; DMSO-normalized, curve-fitted percentage of WIZ-HiBit remaining at 25 uM; read-out: WIZ Amax.
Setting [4] is: HEK-293T; at 25 uM, 100 − Amax; read-out: % degradation of WIZ (100 − Amax).

T1 sequence (O95785 whole entry): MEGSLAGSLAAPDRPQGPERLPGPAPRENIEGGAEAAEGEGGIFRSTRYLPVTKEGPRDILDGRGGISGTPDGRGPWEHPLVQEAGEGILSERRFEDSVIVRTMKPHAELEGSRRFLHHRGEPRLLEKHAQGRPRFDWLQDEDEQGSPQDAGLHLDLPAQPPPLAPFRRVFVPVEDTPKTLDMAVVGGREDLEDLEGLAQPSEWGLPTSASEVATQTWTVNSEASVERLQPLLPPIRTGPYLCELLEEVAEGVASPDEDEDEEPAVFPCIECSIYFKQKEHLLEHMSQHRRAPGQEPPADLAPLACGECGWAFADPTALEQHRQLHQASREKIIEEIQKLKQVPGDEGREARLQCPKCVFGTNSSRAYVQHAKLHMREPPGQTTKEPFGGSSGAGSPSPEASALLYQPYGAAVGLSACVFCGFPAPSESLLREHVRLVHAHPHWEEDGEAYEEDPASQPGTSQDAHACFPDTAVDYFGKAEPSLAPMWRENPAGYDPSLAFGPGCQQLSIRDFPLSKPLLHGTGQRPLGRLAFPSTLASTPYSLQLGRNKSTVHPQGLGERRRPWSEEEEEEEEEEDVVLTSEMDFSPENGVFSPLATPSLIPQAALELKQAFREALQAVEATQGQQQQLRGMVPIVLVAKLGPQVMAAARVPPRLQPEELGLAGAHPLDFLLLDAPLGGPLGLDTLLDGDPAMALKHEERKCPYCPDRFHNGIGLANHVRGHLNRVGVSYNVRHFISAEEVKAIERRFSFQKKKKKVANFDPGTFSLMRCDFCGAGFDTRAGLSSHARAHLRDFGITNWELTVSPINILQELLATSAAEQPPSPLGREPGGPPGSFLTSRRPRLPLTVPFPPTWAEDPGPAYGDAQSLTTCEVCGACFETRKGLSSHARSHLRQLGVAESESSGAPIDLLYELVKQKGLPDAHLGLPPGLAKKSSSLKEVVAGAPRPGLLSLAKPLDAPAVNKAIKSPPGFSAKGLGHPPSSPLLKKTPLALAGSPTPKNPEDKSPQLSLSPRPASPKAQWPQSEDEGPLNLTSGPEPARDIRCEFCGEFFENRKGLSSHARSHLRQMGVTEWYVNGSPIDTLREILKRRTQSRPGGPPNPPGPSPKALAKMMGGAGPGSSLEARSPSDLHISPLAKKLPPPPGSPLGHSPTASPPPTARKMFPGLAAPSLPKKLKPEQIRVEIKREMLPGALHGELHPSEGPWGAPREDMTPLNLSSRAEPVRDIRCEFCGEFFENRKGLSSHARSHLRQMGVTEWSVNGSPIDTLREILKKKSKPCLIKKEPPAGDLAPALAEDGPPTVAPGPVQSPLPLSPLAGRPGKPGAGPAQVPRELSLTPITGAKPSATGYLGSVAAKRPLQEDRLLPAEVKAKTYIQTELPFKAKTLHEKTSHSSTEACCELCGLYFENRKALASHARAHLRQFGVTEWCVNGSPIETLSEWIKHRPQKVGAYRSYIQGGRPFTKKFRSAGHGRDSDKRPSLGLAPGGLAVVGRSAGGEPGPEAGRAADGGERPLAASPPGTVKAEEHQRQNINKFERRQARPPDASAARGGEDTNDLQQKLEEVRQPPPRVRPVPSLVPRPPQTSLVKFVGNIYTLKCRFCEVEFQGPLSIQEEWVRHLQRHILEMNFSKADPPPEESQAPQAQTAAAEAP
T1 sequence (Q96SW2 whole entry): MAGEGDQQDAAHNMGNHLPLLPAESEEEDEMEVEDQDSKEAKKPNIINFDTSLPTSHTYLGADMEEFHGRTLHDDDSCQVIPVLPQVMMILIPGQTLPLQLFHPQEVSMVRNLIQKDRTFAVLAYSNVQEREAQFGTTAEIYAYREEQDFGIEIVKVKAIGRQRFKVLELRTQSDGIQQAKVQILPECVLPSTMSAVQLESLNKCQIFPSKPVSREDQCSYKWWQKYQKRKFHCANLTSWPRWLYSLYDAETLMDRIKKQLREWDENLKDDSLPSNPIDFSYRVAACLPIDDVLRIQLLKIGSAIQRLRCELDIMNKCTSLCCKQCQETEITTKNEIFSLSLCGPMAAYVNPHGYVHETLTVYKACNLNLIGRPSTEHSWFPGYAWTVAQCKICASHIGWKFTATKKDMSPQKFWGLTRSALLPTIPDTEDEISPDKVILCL
T1 sequence (Q16531 whole entry partner): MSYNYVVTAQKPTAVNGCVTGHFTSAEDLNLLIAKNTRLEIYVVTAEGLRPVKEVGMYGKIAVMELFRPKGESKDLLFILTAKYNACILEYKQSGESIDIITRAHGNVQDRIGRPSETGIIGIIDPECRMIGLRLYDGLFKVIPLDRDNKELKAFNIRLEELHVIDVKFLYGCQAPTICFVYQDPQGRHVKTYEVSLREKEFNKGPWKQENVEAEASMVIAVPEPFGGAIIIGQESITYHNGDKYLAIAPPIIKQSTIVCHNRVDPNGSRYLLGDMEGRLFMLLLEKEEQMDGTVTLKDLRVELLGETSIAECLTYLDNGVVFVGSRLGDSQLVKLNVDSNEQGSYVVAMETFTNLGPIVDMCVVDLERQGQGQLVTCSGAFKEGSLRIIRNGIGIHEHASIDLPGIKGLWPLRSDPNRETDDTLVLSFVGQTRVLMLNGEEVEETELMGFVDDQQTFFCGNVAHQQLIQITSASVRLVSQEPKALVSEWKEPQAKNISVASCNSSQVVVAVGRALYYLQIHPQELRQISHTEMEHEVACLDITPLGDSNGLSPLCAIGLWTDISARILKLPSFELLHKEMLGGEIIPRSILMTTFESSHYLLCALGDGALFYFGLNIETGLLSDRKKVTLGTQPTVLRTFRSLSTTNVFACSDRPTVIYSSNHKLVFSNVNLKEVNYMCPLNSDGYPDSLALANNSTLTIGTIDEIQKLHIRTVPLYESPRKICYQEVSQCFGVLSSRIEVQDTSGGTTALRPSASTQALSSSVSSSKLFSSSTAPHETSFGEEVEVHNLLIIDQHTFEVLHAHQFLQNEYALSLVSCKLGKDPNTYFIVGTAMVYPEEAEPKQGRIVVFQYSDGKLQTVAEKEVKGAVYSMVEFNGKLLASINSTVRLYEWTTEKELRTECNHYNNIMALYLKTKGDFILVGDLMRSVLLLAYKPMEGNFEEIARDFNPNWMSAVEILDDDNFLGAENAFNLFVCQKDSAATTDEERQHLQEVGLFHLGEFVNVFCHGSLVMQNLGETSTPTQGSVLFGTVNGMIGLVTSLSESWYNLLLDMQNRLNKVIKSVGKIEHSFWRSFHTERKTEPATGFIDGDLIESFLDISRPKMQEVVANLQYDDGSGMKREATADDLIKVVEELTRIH

Take `CCN1CC[C@H](C)[C@@H](Oc2ccc3c(c2)CN(C2CCC(=O)NC2=O)C3=O)C1` (mixture of isomers) [Example 35, rac-3-(5-(((3R,4S)-1-ethyl-4-methylpiperidin-3-yl)oxy)-1-oxoisoindolin-2-yl)piperidine-2,6-dione]: under setting [1], the Dmax amounted to 31.9%. For the same molecule, for the setting “HEK-293T, read-out: WIZ Amax”, the remaining activity at 25 µM came to 68.1%. In addition, the DC50 under setting [2] amounted to 26 nM.

For `CCN1C[C@@H]2C[C@@H]2[C@@H](Oc2ccc3c(c2)CN(C2CCC(=O)NC2=O)C3=O)C1` (single isomer, unassigned) [Example 21, 3-(5-(((1R*,5R*,6S*)-3-ethyl-3-azabicyclo[4.1.0]heptan-5-yl)oxy)-1-oxoisoindolin-2-yl)piperidine-2,6-dione], under setting [3], the remaining activity at 25 µM amounted to 25.7%. For the same molecule, the Dmax at 25 µM under setting [4] is 74.3%. Under setting [2], the DC50 came to 3.5 nM.

With `CC[C@H](C)N1CCC2(CC2)[C@@H](Oc2ccc3c(c2)CN(C2CCC(=O)NC2=O)C3=O)C1` (stereo partly drawn) [Example 17, 3-(5-(((R)-6-((S)-sec-butyl)-6-azaspiro[2.5]octan-4-yl)oxy)-1-oxoisoindolin-2-yl)piperidine-2,6-dione], the remaining activity at 25 µM under setting [3] worked out at 27.8%. Moreover, under setting [4], the Dmax at 25 µM was found to be 72.2%. Moreover, the DC50 under setting [2] turned out to be 14 nM.

Regarding `O=C1CCC(N2Cc3cc(O[C@@H]4CCCN(CC5CCC(F)(F)CC5)C4)ccc3C2=O)C(=O)N1` (stereo partly drawn) [Example 5, 3-(5-(((R)-1-((4,4-difluorocyclohexyl)methyl)piperidin-3-yl)oxy)-1-oxoisoindolin-2-yl)piperidine-2,6-dione], under setting [3], the remaining activity at 25 µM was determined as 77.3%. Moreover, the Dmax at 25 µM under setting [4] was found to be 22.7%. The DC50 under setting [2] came out at 55 nM.

With `O=C1CCC(N2Cc3cc(O[C@@H]4CCCN(C5CC(F)(F)C5)C4)ccc3C2=O)C(=O)N1` (mixture of isomers) [Example 29, 3-(5-(((R)-1-(3,3-difluorocyclobutyl)piperidin-3-yl)oxy)-1-oxoisoindolin-2-yl)piperidine-2,6-dione], the remaining activity at 25 µM under setting [3] was found to be 69%. Under setting [4], the Dmax at 25 µM amounted to 31%. Also, under setting [2], the DC50 was 82 nM.

In the case of `CCN1CCCC[C@H](Oc2ccc3c(c2)CN(C2CCC(=O)NC2=O)C3=O)C1` (stereo partly drawn) [Example 37, 3-(5-(((S)-1-ethylazepan-3-yl)oxy)-1-oxoisoindolin-2-yl)piperidine-2,6-dione], the remaining activity at 25 µM (HEK-293T, read-out: WIZ Amax) amounted to 103%. Further, the DC50 under setting [2] is greater than 25000 nM.

`CCN1C[C@H](Oc2ccc3c(c2)CN(C2CCC(=O)NC2=O)C3=O)CC[C@H]1C` (stereo partly drawn) [Example 23, 3-(5-(((3R,6R)-1-ethyl-6-methylpiperidin-3-yl)oxy)-1-oxoisoindolin-2-yl)piperidine-2,6-dione]: under setting [1], the Dmax turned out to be 57.7%. In addition, the remaining activity at 25 µM (HEK-293T, read-out: WIZ Amax) was determined as 42.3%. Besides, the DC50 (read-out: WIZ AC50; WIZ HiBit assay in 293T cells, about 18 hours, 10-point 5-fold dilution, top 25 μM) amounted to 30 nM.

Regarding `CCN1C[C@H](F)C[C@@H](Oc2ccc3c(c2)CN(C2CCC(=O)NC2=O)C3=O)C1` (stereo partly drawn) [Example 60, 3-(5-(((3R,5R)-1-ethyl-5-fluoropiperidin-3-yl)oxy)-1-oxoisoindolin-2-yl)piperidine-2,6-dione], the Dmax under setting [1] came out at 37%. In addition, the remaining activity at 25 µM (HEK-293T, read-out: WIZ Amax) came out at 63%. Moreover, the DC50 under setting [2] stood at 78 nM.

Regarding `CCC[C@H]1CC[C@@H](Oc2ccc3c(c2)CN(C2CCC(=O)NC2=O)C3=O)CN1` (stereo partly drawn) [Example 87-1, 3-(1-oxo-5-(((3R,6S)-6-propylpiperidin-3-yl)oxy)isoindolin-2-yl)piperidine-2,6-dione], the Dmax under setting [1] worked out at 71.4%. The remaining activity at 25 µM (HEK-293T, read-out: WIZ Amax) was found to be 28.6%. For the same molecule, under setting [2], the DC50 amounted to 35.9 nM.

Turning to `O=C1CCC(N2Cc3cc(O[C@@H]4CCCN(C5CCCCC5)C4)ccc3C2=O)C(=O)N1` (stereo partly drawn) [Example 43, 3-(5-(((R)-1-cyclohexylpiperidin-3-yl)oxy)-1-oxoisoindolin-2-yl)piperidine-2,6-dione], the remaining activity at 25 µM under setting [3] came to 28.1%. The Dmax at 25 µM under setting [4] was 71.9%. The DC50 under setting [2] came out at 3.7 nM.

On to `CC(C)N1C[C@H](O)C[C@@H](Oc2ccc3c(c2)CN(C2CCC(=O)NC2=O)C3=O)C1` (stereo partly drawn) [Example 67, 3-(5-(((3R,5R)-5-hydroxy-1-isopropylpiperidin-3-yl)oxy)-1-oxoisoindolin-2-yl)piperidine-2,6-dione], for which the remaining activity at 25 µM under setting [3] amounted to 16.9%. In addition, under setting [4], the Dmax at 25 µM is 83.1%. For the same molecule, under setting [2], the DC50 was found to be 11.2 nM.

With `CCN1CCC(C)(C)C(Oc2ccc3c(c2)CN(C2CCC(=O)NC2=O)C3=O)C1` (single isomer, unassigned) [Example 49, 3-(5-((1-ethyl-4,4-dimethylpiperidin-3-yl)oxy)-1-oxoisoindolin-2-yl)piperidine-2,6-dione], under setting [3], the remaining activity at 25 µM is 91.4%. In addition, the Dmax at 25 µM under setting [4] came out at 8.63%. For the same molecule, the DC50 under setting [2] stood at 83 nM.

`CCN1CC2CC(Oc3ccc4c(c3)CN(C3CCC(=O)NC3=O)C4=O)C1C2` (racemic) [Example 62, rac-3-(5-((2-ethyl-2-azabicyclo[2.2.1]heptan-6-yl)oxy)-1-oxoisoindolin-2-yl)piperidine-2,6-dione]: the Dmax under setting [1] turned out to be 27.1%. For the same molecule, under “HEK-293T, read-out: WIZ Amax”, the remaining activity at 25 µM turned out to be 72.9%. Also, under setting [2], the DC50 was determined as 83 nM.

Turning to `O=C1CCC(N2Cc3cc(O[C@@H]4CCCN(CC5CCC5)C4)ccc3C2=O)C(=O)N1` (stereo partly drawn) [Example 7, 3-(5-(((R)-1-(cyclobutylmethyl)piperidin-3-yl)oxy)-1-oxoisoindolin-2-yl)piperidine-2,6-dione], the remaining activity at 25 µM under setting [3] came to 38.9%. Further, the Dmax at 25 µM under setting [4] came to 61.1%. Also, the DC50 under setting [2] was determined as 1.1 nM.

For the molecule `CCN1C[C@H](OC)C[C@@H](Oc2ccc3c(c2)CN(C2CCC(=O)NC2=O)C3=O)C1` (stereo partly drawn) [Example 64, 3-(5-(((3R,5R)-1-ethyl-5-methoxypiperidin-3-yl)oxy)-1-oxoisoindolin-2-yl)piperidine-2,6-dione], the Dmax under setting [1] was 79.5%. Further, where the note is “HEK-293T, read-out: WIZ Amax”, the remaining activity at 25 µM amounted to 20.6%. Further, the DC50 under setting [2] was determined as 6.3 nM.

As for `CC[C@H](C)N1CCC(C)(C)C(Oc2ccc3c(c2)CN(C2CCC(=O)NC2=O)C3=O)C1` (single isomer, unassigned) [Example 51], where the note is “DMSO-normalized, curve-fitted percentage of WIZ-HiBit remaining at 25 uM”, the “WIZ Amax” value stood at 87.19%. The DC50 under setting [2] was 200 nM. Also, the “% degradation of WIZ (100 − Amax)” value (at 25 uM, 100 − Amax) came out at 12.81%.

`C=CCCN1CCC[C@@H](Oc2ccc3c(c2)CN(C2CCC(=O)NC2=O)C3=O)C1` (stereo partly drawn) [Example 31, 3-(5-(((R)-1-(but-3-en-1-yl)piperidin-3-yl)oxy)-1-oxoisoindolin-2-yl)piperidine-2,6-dione]: the remaining activity at 25 µM under setting [3] amounted to 31.4%. Further, the Dmax at 25 µM under setting [4] came out at 68.6%. Further, the DC50 under setting [2] amounted to 8.9 nM.

For `CCN1C[C@@H]2C[C@@H]2[C@H](Oc2ccc3c(c2)CN(C2CCC(=O)NC2=O)C3=O)C1` (relative stereo) [Example 53, 3-(5-(((1R*,5S*,6S*)-3-ethyl-3-azabicyclo[4.1.0]heptan-5-yl)oxy)-1-oxoisoindolin-2-yl)piperidine-2,6-dione], under setting [3], the remaining activity at 25 µM worked out at 78.2%. Under setting [4], the Dmax at 25 µM stood at 21.8%. For the same molecule, the DC50 under setting [2] was determined as 71 nM.

Regarding `CC(C)CN1CCCC[C@@H](Oc2ccc3c(c2)CN(C2CCC(=O)NC2=O)C3=O)C1` (stereo partly drawn) [Example 38, 3-(5-(((R)-1-isobutylazepan-3-yl)oxy)-1-oxoisoindolin-2-yl)piperidine-2,6-dione], the remaining activity at 25 µM under setting [3] is 35.6%. Further, under setting [4], the Dmax at 25 µM worked out at 64.3%. In addition, the DC50 under setting [2] turned out to be 25 nM.

For `CCN1CCCC[C@@H](Oc2ccc3c(c2)CN(C2CCC(=O)NC2=O)C3=O)C1` (stereo partly drawn) [Example 36, 3-(5-(((R)-1-ethylazepan-3-yl)oxy)-1-oxoisoindolin-2-yl)piperidine-2,6-dione], under setting [1], the Dmax was 67.5%. For the same molecule, the remaining activity at 25 µM (HEK-293T, read-out: WIZ Amax) was 32.5%. In addition, the DC50 under setting [2] worked out at 57 nM.
